System: CT26 mouse colon cancer cells
Test: In vivo vaccination/challenge mouse model with payload-treated CT26 cells
Conditions: CT26 cells treated 24 hours with tubulysin (1 uM) or PBD (10 nM), implanted in left flank of BALB/c mice; challenge with untreated CT26 cells in opposite flank 1 week later; assessed on day 65
Procedure: CT26 cells were treated with either […] AZD9185 (tubulysin) or […] SG3199 (PBD) for 24 hours so that the cells were committed to cell death (as assessed by lack of growth in re-plating experiments) but still >95% viable. Five-hundred thousand of these treated cells were inoculated into the left flank of BALB/c mice to test for their ability to vaccinate for subsequent right flank challenge. Controls included cells treated with 75 Gy radiation or taken through 3 freeze-thaw cycles (necrotic). Challenge on the right flank utilized 3×10^6 untreated CT26 cells 7 days later.
In order to test this, tubulysin and PBD were used in a vaccination/challenge mouse model. CT26 mouse colon cancer cells were treated with either tubulysin (1 uM) or PBD (10 nM) for a period of 24 hours (FIG. 1A). At this point in time, the cells were still viable but committed subsequent cell death.
These dying but not yet dead cells were implanted subcutaneously into the left flank of BALB/c mice to test if they could vaccinate against subsequent challenge with a tumor forming dose of untreated CT26 cells in the opposite flank 1 week later. Irradiated cells were included as a positive control and necrotic cells which were taken through a freeze thaw cycle were included as a negative control.

SMILES | mice protected from tumor formation
COc1cc2c(cc1OCCCCCOc1cc3c(cc1OC)C(=O)N1C=C(C)C[C@H]1C=N3)N=C[C@@H]1CC(C)=CN1C2=O [PBD] | 70%
CC[C@H](C)[C@H](NC(=O)[C@H]1CCCCN1C)C(=O)N(COC(=O)CC(C)C)[C@H](C[C@@H](OC(C)=O)c1nc(C(=O)N[C@@H](Cc2ccc(C)cc2)C[C@H](C)C(=O)O)cs1)C(C)C [Tubulysin] | 40%
